Experiments:
[1] = The drug is tested on Z-026 corresponding to metagenome with ENA study accession number: PRJEB37062 and ENA sample accession number: ERS12561825 for biotransformation under anaerobic condition. The drug concentrations were measured over 9 timepoints collected between 0 and 24 hours of incubation by liquid-chromatography-coupled mass spectrometry (LC–MS); settings: 2 µM
[2] = The drug is tested on Z-019 corresponding to rat gut metagenome with ENA study accession number: PRJEB37062 and ENA sample accession number: ERS12561818 for biotransformation under anaerobic condition. The drug concentrations were measured over 9 timepoints collected between 0 and 24 hours of incubation by liquid-chromatography-coupled mass spectrometry (LC–MS); settings: 2 µM
[3] = The drug is tested on Z-017 corresponding to mouse gut metagenome with ENA study accession number: PRJEB37062 and ENA sample accession number: ERS12561816 for biotransformation under anaerobic condition. The drug concentrations were measured over 9 timepoints collected between 0 and 24 hours of incubation by liquid-chromatography-coupled mass spectrometry (LC–MS); settings: 2 µM
[4] = The drug is tested on Z-014 corresponding to rat gut metagenome with ENA study accession number: PRJEB37062 and ENA sample accession number: ERS12561814 for biotransformation under anaerobic condition. The drug concentrations were measured over 9 timepoints collected between 0 and 24 hours of incubation by liquid-chromatography-coupled mass spectrometry (LC–MS); settings: 2 µM
[5] = The drug is tested on Z-013 corresponding to rabbit gut metagenome with ENA study accession number: PRJEB37062 and ENA sample accession number: ERS12561813 for biotransformation under anaerobic condition. The drug concentrations were measured over 9 timepoints collected between 0 and 24 hours of incubation by liquid-chromatography-coupled mass spectrometry (LC–MS); settings: 2 µM
[6] = The drug is tested on Z-006 corresponding to mouse gut metagenome with ENA study accession number: PRJEB37062 and ENA sample accession number: ERS12561806 for biotransformation under anaerobic condition. The drug concentrations were measured over 9 timepoints collected between 0 and 24 hours of incubation by liquid-chromatography-coupled mass spectrometry (LC–MS); settings: 2 µM
[7] = The drug is tested on WLS-240 corresponding to human gut metagenome with ENA study accession number: PRJEB37062 and ENA sample accession number: ERS12561773 for biotransformation under anaerobic condition. The drug concentrations were measured over 9 timepoints collected between 0 and 24 hours of incubation by liquid-chromatography-coupled mass spectrometry (LC–MS); settings: 2 µM
[8] = The drug is tested on WLS-170 corresponding to human gut metagenome with ENA study accession number: PRJEB37062 and ENA sample accession number: ERS12561762 for biotransformation under anaerobic condition. The drug concentrations were measured over 9 timepoints collected between 0 and 24 hours of incubation by liquid-chromatography-coupled mass spectrometry (LC–MS); settings: 2 µM
[9] = The drug is tested on WLS-077 corresponding to human gut metagenome with ENA study accession number: PRJEB37062 and ENA sample accession number: ERS12561750 for biotransformation under anaerobic condition. The drug concentrations were measured over 9 timepoints collected between 0 and 24 hours of incubation by liquid-chromatography-coupled mass spectrometry (LC–MS); settings: 2 µM
[10] = The drug is tested on WLS-027 corresponding to human gut metagenome with ENA study accession number: PRJEB37062 and ENA sample accession number: ERS12561744 for biotransformation under anaerobic condition. The drug concentrations were measured over 9 timepoints collected between 0 and 24 hours of incubation by liquid-chromatography-coupled mass spectrometry (LC–MS); settings: 2 µM
[11] = human gut metagenome, 24 h, 2 µM
[12] = human gut metagenome, 24 h, 2 µM; remark: listed apart in the source
[13] = human gut metagenome, 24 h, 2 µM; remark: listed apart in the source
[14] = human gut metagenome, 24 h, 2 µM; remark: listed apart in the source
[15] = human gut metagenome, 24 h, 2 µM; remark: listed apart in the source
[16] = human gut metagenome, 24 h, 2 µM; remark: listed apart in the source
[17] = human gut metagenome, 24 h, 2 µM; remark: listed apart in the source
[18] = human gut metagenome, 24 h, 2 µM; remark: listed apart in the source
[19] = human gut metagenome, 24 h, 2 µM; remark: listed apart in the source
[20] = human gut metagenome, 24 h, 2 µM; remark: listed apart in the source
Also: call rule not given here.

O=c1[nH]c2ccccc2n1C1CCN(CCCC(c2ccc(F)cc2)c2ccc(F)cc2)CC1 [PIMOZIDE]
Bacterial Biotransformation [1]: Compound NOT metabolized
Bacterial Biotransformation [2]: Compound NOT metabolized
Bacterial Biotransformation [3]: Compound metabolized
Bacterial Biotransformation [4]: Compound NOT metabolized
Bacterial Biotransformation [5]: Compound metabolized
Bacterial Biotransformation [6]: Compound metabolized
Bacterial Biotransformation [7]: Compound metabolized
Bacterial Biotransformation [8]: Compound metabolized
Bacterial Biotransformation [9]: Compound NOT metabolized
Bacterial Biotransformation [10]: Compound metabolized
Bacterial Biotransformation [11]: Compound metabolized
Bacterial Biotransformation [12]: Compound metabolized
Bacterial Biotransformation [13]: Compound metabolized
Bacterial Biotransformation [14]: Compound metabolized
Bacterial Biotransformation [15]: Compound metabolized
Bacterial Biotransformation [16]: Compound metabolized
Bacterial Biotransformation [17]: Compound NOT metabolized
Bacterial Biotransformation [18]: Compound NOT metabolized
Bacterial Biotransformation [19]: Compound metabolized
Bacterial Biotransformation [20]: Compound metabolized

COc1cc2nc(N3CCN(C(=O)c4ccco4)CC3)nc(N)c2cc1OC [PRAZOSIN]
Bacterial Biotransformation [1]: Compound NOT metabolized
Bacterial Biotransformation [2]: Compound NOT metabolized
Bacterial Biotransformation [3]: Compound NOT metabolized
Bacterial Biotransformation [4]: Compound NOT metabolized
Bacterial Biotransformation [5]: Compound NOT metabolized
Bacterial Biotransformation [6]: Compound NOT metabolized
Bacterial Biotransformation [7]: Compound metabolized
Bacterial Biotransformation [8]: Compound metabolized
Bacterial Biotransformation [9]: Compound NOT metabolized
Bacterial Biotransformation [10]: Compound NOT metabolized
Bacterial Biotransformation [11]: Compound metabolized
Bacterial Biotransformation [12]: Compound metabolized
Bacterial Biotransformation [13]: Compound metabolized
Bacterial Biotransformation [14]: Compound metabolized
Bacterial Biotransformation [15]: Compound metabolized
Bacterial Biotransformation [16]: Compound metabolized
Bacterial Biotransformation [17]: Compound NOT metabolized
Bacterial Biotransformation [18]: Compound NOT metabolized
Bacterial Biotransformation [19]: Compound metabolized
Bacterial Biotransformation [20]: Compound metabolized

CS(=O)(=O)O.OC(CCN1CCCCC1)(c1ccccc1)c1ccccc1 [PRIDINOL METHANESULFONATE]
Bacterial Biotransformation [1]: Compound NOT metabolized
Bacterial Biotransformation [2]: Compound NOT metabolized
Bacterial Biotransformation [3]: Compound NOT metabolized
Bacterial Biotransformation [4]: Compound NOT metabolized
Bacterial Biotransformation [5]: Compound NOT metabolized
Bacterial Biotransformation [6]: Compound NOT metabolized
Bacterial Biotransformation [7]: Compound metabolized
Bacterial Biotransformation [8]: Compound metabolized
Bacterial Biotransformation [9]: Compound NOT metabolized
Bacterial Biotransformation [10]: Compound NOT metabolized
Bacterial Biotransformation [11]: Compound NOT metabolized
Bacterial Biotransformation [12]: Compound metabolized
Bacterial Biotransformation [13]: Compound metabolized
Bacterial Biotransformation [14]: Compound NOT metabolized
Bacterial Biotransformation [15]: Compound metabolized
Bacterial Biotransformation [16]: Compound metabolized
Bacterial Biotransformation [17]: Compound NOT metabolized
Bacterial Biotransformation [18]: Compound NOT metabolized
Bacterial Biotransformation [19]: Compound metabolized
Bacterial Biotransformation [20]: Compound metabolized

CC(CN1c2ccccc2Sc2ccccc21)N(C)C (stereo not given) [PROMETHAZINE]
Bacterial Biotransformation [1]: Compound NOT metabolized
Bacterial Biotransformation [2]: Compound NOT metabolized
Bacterial Biotransformation [3]: Compound NOT metabolized
Bacterial Biotransformation [4]: Compound NOT metabolized
Bacterial Biotransformation [5]: Compound NOT metabolized
Bacterial Biotransformation [6]: Compound NOT metabolized
Bacterial Biotransformation [7]: Compound metabolized
Bacterial Biotransformation [8]: Compound metabolized
Bacterial Biotransformation [9]: Compound NOT metabolized
Bacterial Biotransformation [10]: Compound metabolized
Bacterial Biotransformation [11]: Compound NOT metabolized
Bacterial Biotransformation [12]: Compound NOT metabolized
Bacterial Biotransformation [13]: Compound metabolized
Bacterial Biotransformation [14]: Compound NOT metabolized
Bacterial Biotransformation [15]: Compound metabolized
Bacterial Biotransformation [16]: Compound metabolized
Bacterial Biotransformation [17]: Compound NOT metabolized
Bacterial Biotransformation [18]: Compound NOT metabolized
Bacterial Biotransformation [19]: Compound metabolized
Bacterial Biotransformation [20]: Compound NOT metabolized

OCCOCCN1CCN(C2=Nc3ccccc3Sc3ccccc32)CC1 [QUETIAPINE]
Bacterial Biotransformation [1]: Compound NOT metabolized
Bacterial Biotransformation [2]: Compound NOT metabolized
Bacterial Biotransformation [3]: Compound NOT metabolized
Bacterial Biotransformation [4]: Compound NOT metabolized
Bacterial Biotransformation [5]: Compound NOT metabolized
Bacterial Biotransformation [6]: Compound NOT metabolized
Bacterial Biotransformation [7]: Compound metabolized
Bacterial Biotransformation [8]: Compound metabolized
Bacterial Biotransformation [9]: Compound NOT metabolized
Bacterial Biotransformation [10]: Compound metabolized
Bacterial Biotransformation [11]: Compound NOT metabolized
Bacterial Biotransformation [12]: Compound metabolized
Bacterial Biotransformation [13]: Compound metabolized
Bacterial Biotransformation [14]: Compound metabolized
Bacterial Biotransformation [15]: Compound metabolized
Bacterial Biotransformation [16]: Compound metabolized
Bacterial Biotransformation [17]: Compound NOT metabolized
Bacterial Biotransformation [18]: Compound NOT metabolized
Bacterial Biotransformation [19]: Compound metabolized
Bacterial Biotransformation [20]: Compound metabolized

CCC(=O)NCC[C@@H]1CCc2ccc3c(c21)CCO3 [RAMELTEON]
Bacterial Biotransformation [1]: Compound NOT metabolized
Bacterial Biotransformation [2]: Compound NOT metabolized
Bacterial Biotransformation [3]: Compound NOT metabolized
Bacterial Biotransformation [4]: Compound metabolized
Bacterial Biotransformation [5]: Compound metabolized
Bacterial Biotransformation [6]: Compound metabolized
Bacterial Biotransformation [7]: Compound metabolized
Bacterial Biotransformation [8]: Compound metabolized
Bacterial Biotransformation [9]: Compound metabolized
Bacterial Biotransformation [10]: Compound metabolized
Bacterial Biotransformation [11]: Compound metabolized
Bacterial Biotransformation [12]: Compound metabolized
Bacterial Biotransformation [13]: Compound metabolized
Bacterial Biotransformation [14]: Compound metabolized
Bacterial Biotransformation [15]: Compound metabolized
Bacterial Biotransformation [16]: Compound metabolized
Bacterial Biotransformation [17]: Compound metabolized
Bacterial Biotransformation [18]: Compound NOT metabolized
Bacterial Biotransformation [19]: Compound metabolized
Bacterial Biotransformation [20]: Compound metabolized

Source: ChEMBL document CHEMBL5724914, “Linking interpersonal differences in gut microbiota composition and drug biotransformation activity” (2024)
